What all share (assay type): biochemical
In assay [1] the target is T1, human CDC25A (recombinant GST-CDC25) (Homo sapiens, UniProt P30304).
T1 construct: made in house; host or cells: Escherichia coli BL21-DE3 pLys S
T1 sequence (P30304 1-524): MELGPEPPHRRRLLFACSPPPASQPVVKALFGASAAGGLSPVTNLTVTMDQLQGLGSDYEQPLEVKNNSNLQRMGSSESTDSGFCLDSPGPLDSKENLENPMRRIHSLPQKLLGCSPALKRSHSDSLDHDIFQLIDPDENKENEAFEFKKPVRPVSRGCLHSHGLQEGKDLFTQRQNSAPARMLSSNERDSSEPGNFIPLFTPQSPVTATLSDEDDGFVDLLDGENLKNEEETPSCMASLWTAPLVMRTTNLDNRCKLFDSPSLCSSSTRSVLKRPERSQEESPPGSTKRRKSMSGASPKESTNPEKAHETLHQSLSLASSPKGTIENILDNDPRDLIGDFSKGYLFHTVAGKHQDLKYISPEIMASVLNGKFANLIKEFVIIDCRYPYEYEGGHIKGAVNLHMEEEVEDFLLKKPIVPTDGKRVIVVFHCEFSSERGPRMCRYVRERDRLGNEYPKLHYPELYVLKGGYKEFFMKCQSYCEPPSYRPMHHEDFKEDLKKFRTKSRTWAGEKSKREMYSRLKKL
Put plainly: CDC25A dephosphorylation assay with 3-O-methylfluorescein phosphate (fluorimetric). To be noted: for remaining activity at 100 µM: 100 µM compound, DMSO control = 100%, read-out: residual activity of CDC25A; for IC50: mean of triplicates ± SD. The source says:
(§1) Human glutathione-S-transferase (GST)-Cdc25 recombinant enzymes were used to evaluate the inhibitory potential of compounds.
(§2) Recombinant human GST-CDC25 proteins were produced as previously described by Brault et al.[25] Briefly, the GST-tagged Cdc25s were expressed in the bacterial expression system Escherichia coli BL21-DE3 pLys S, transformed by a plasmidic vector (pGEX 2T) containing the sequences encoding full length CDC25. Production of recombinant proteins was induced via an IPTG induction system. Then, cells were lysed and centrifuged to recover the supernatant which was purified with a GSH-agarose column system, and recombinant GST-CDC25 proteins were eluted and collected in fractions. Activity, purity and protein concentration of the fractions were evaluated.
(§3) CDC25 enzymatic activity was measured by a dephosphorylation assay with 3-O methyl fluorescein phosphate as described. Briefly, the assay was performed in 96-well plates in buffer [50 mM Tris–HCl, 50 mM NaCl, 1 mM EDTA and 0.1% SAB, pH 8.1], 3-O-methylfluorescein phosphate was used as substrate. After 2 h at 30 °C, 3-O-methylfluorescein fluorescent emission was measured with a CytoFluor system (Perspective Applied Biosystems, Villebon-sur-Yvette, France; excitation filter: 475 nm; emission filter: 510 nm).
(§4) Assays were performed in triplicate, and the experiment was independently performed three times. The results are expressed as percentage of inhibition of CDC25 phosphatase activity in presence of the tested compounds (and compared to DMSO control). All compounds were tested at a 100 µM concentration. Naphtoquinone (20 µM) was used as positive reference inhibitor.
(§5) IC50 values for CDC25 inhibition were evaluated by in vitro fluorimetric assays and were determined with sigmoid curves plotted by using a non-linear approximation model based on the least square method (GraphPad Prism software, La Jolla, CA).

Assay [2] deals with T2, human CDC25B (recombinant GST-CDC25) (Homo sapiens, UniProt P30305).
T2 construct: made in house; host or cells: Escherichia coli BL21-DE3 pLys S
T2 sequence (P30305 1-580): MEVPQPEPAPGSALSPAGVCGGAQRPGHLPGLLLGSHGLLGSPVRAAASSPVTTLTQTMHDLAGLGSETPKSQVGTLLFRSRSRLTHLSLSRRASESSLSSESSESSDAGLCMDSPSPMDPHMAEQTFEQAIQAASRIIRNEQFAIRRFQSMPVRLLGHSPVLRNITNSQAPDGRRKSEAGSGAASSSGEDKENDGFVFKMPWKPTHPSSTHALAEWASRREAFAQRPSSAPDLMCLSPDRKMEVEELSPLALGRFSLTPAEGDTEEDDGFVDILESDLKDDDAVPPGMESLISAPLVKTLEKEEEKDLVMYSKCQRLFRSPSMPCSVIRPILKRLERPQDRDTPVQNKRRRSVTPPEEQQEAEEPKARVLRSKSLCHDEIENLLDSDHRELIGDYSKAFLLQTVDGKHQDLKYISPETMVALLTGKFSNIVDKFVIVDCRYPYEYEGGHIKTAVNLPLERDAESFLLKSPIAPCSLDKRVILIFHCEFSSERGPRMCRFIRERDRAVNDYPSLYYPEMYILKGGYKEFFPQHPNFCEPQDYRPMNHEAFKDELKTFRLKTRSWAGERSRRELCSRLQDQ
Put plainly: CDC25B dephosphorylation assay with 3-O-methylfluorescein phosphate (fluorimetric). Particulars: for remaining activity at 100 µM: 100 µM compound, DMSO control = 100%, read-out: residual activity of CDC25B; for IC50 / IC50 CDC25B: mean of triplicates ± SD.
Excerpt: as §1, §2, §3, §4, §5

In assay [3] the target is T3, human CDC25C (recombinant GST-CDC25) (Homo sapiens, UniProt P30307).
T3 construct: made in house; host or cells: Escherichia coli BL21-DE3 pLys S
T3 sequence (P30307 1-473): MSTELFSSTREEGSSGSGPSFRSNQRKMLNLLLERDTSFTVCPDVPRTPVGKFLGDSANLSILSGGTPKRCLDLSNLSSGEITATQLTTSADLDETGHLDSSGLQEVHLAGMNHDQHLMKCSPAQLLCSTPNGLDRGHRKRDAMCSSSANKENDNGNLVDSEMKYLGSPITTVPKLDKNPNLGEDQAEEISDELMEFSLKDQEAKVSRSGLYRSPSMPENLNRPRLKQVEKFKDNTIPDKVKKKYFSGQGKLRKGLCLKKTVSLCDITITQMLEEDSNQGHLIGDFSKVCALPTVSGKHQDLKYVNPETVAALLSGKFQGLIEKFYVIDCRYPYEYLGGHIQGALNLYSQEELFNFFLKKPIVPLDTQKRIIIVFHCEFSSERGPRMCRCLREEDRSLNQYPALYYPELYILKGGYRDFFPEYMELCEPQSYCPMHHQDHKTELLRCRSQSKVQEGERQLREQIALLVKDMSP
Put plainly: CDC25C dephosphorylation assay with 3-O-methylfluorescein phosphate (fluorimetric). To be noted: for remaining activity at 100 µM: 100 µM compound, DMSO control = 100%, read-out: residual activity of CDC25C; for IC50: mean of triplicates ± SD.
Excerpt: as §1, §2, §3, §4, §5

Consider seven molecules from article PMC6010111, “Synthesis, biological evaluation and molecular modeling studies on novel quinonoid inhibitors of CDC25 phosphatases” (Journal of Enzyme Inhibition and Medicinal Chemistry, 2016).

SMILES strings stand for the structures.

On to `COCC1=CC(=O)C(C)=C([S@@+]([O-])c2ccc(C)cc2)C1=O` [Compound 2], for which the remaining activity at 100 µM in assay [1], in assay [2] and in assay [3] was over 10% each time.

By IC50 is commonly meant the point on the concentration scale where inhibition reaches its midpoint. Consider `CCOC1=CC(=O)C(C)=C([S@@+]([O-])c2ccc(C)cc2)C1=O` [Compound 3], for which the IC50 in assay [1] worked out at 3.19 ± 1.02 µM; in assay [2] it was 11.1 ± 1.01 µM; in assay [3], 5.41 ± 0.52 µM. Besides, in assay [2], the “IC50 CDC25B” value was “double digit micromolar”.

In the case of `COC1=CC(=O)[C@]2(C)CC=C3CO[C@@H](c4ccoc4)CC3C2[C@H]1O` (stereo partly drawn) [Compound 7], the remaining activity at 100 µM in assay [1], in assay [2] and in assay [3] was over 10% in each case.

As for `COC1=CC(=O)[C@]2(C)CC=C3CO[C@@H](c4ccoc4)CC3[C@]2([S@@+]([O-])c2ccc(C)cc2)C1=O` (stereo partly drawn) [Compound 4], the IC50 in assay [1] is 3.73 ± 1.53 µM; in assay [2], 18.2 ± 1.68 µM; in assay [3], 9.43 ± 1.25 µM. Also, the “IC50 CDC25B” value in assay [2] is reported as “double digit micromolar”.

`COC1=CC(=O)[C@]2(C)CC=C3CO[C@@H](c4ccccc4)CC3C2C1=O` (stereo partly drawn) [Compound 6]: the remaining activity at 100 µM in assay [1], in assay [2] and in assay [3] was over 10% each time.

As for `COC1=CC(=O)[C@]2(C)CC=C3CO[C@@H](c4ccccc4)CC3[C@]2([S@@+]([O-])c2ccc(C)cc2)C1=O` (stereo partly drawn) [Compound 5], the values for the IC50 in assay [1], in assay [2] and in assay [3] were 2.53 ± 0.23 µM, 7.46 ± 2.17 µM and 5.76 ± 0.42 µM, respectively.

On to `COC1=CC(=O)C=C([S@@+]([O-])c2ccc(C)cc2)C1=O` [Compound 1], for which the IC50 in assay [1] stood at 2.64 ± 0.62 µM.
